Test results from the NIST ThermoML archive (doi:10.1016/j.jct.2018.02.019).

Assay: mn = molality of the nth substance listed, in mol/kg
Conditions: 298.15 K, Ring tensiometer

C[C@H](CCC(=O)NCCS(=O)(=O)[O-])[C@H]1CC[C@H]2[C@@H]3[C@H](O)C[C@@H]4C[C@H](O)CC[C@]4(C)[C@H]3C[C@H](O)[C@]12C.[Na+] [sodium taurocholate] + O
Conditions	surface tension liquid-gas [mN/m]
m1 = 0.00062	53.39
m1 = 0.00093	50.95
m1 = 0.00149	47.64
m1 = 0.00208	45.58
m1 = 0.00263	44.18
m1 = 0.00313	43
m1 = 0.00354	42.08
m1 = 0.00392	41.48
m1 = 0.00455	40.95
m1 = 0.00489	40.5
m1 = 0.00556	40.48
m1 = 0.0062	40.51
m1 = 0.00714	40.45
m1 = 0.00804	40.5
